Results on 33 compounds are retold here after patent US8802712B2, “Pyrazoloquinolines” (Merck Patent GmbH, priority 2010, dated 2014).

Where a name gives a salt, the structure may show the parent alone.

This experiment deals with DNA-PK (Homo sapiens (Human), UniProt P78527). Description: DNA-PK/Biochemical Assay (FlashPlate kinase assay). Particulars: 5 μM ATP, 90 min, room temperature. On the procedure: The kinase assay was carried out in streptavidin-coated […] microtitre FlashPlates®. To this end, 1.5 μg of the DNA-PK/protein complex and 100 ng of biotinylated substrate, such as, for example, […] biotin-NH2 (“biotin-DNA-PK peptide”), in a total volume of 36.5 μl (34.25 mM HEPES/KOH, 7.85 mM Tris-HCl, 68.5 mM KCl, 5 μM ATP, 6.85 mM MgCl2, 0.5 mM EDTA, 0.14 mM EGTA, 0.69 mM DTT, pH 7.4), were incubated at room temperature for 90 min with 500 ng of DNA from calf thymus, 0.1 μCi of 33P-ATP and 1.8% of DMSO per well with or without the test compound. The reaction was stopped using 50 μl/well of 200 mM EDTA. After incubation for a further 30 min at room temperature, the liquid was removed. Each well was washed three times with 100 μl of 0.9% sodium chloride solution. A non-specific reaction (blank value) was determined using 10 μM of a proprietary kinase inhibitor. The radioactivity measurement was carried out by means of a TopCount. IC50 values were calculated in RS1. • Literature: Kashishian et al. (2003) Molecular Cancer Therapeutics 1257.
As to `COc1cc2ncc3c(c(-c4ccc(C#N)cc4)nn3C)c2cc1OCc1cscn1` [Compound 42, 4-[7-Methoxy-3-methyl-8-(thiazol-4-ylmethoxy)-3H-pyrazolo[3,4-c]quinolin-1-yl]-benzonitrile], the IC50 (as a rule, the concentration at which inhibition is half-maximal) is less than 100 nM.

As for `COc1cc2ncc3c(c(-c4ccc(C#N)cc4)nn3C)c2cc1OCc1cncs1` [Compound 43, 4-[7-Methoxy-3-methyl-8-(thiazol-5-ylmethoxy)-3H-pyrazolo[3,4-c]quinolin-1-yl]-benzonitrile], the IC50 was less than 100 nM.

Consider `COc1cc2ncc3c(c(-c4ccc(C#N)cc4)nn3C)c2cc1OCc1cccnc1` [Compound 12, 4-[7-Methoxy-3-methyl-8-(pyridin-3-ylmethoxy)-3H-pyrazolo[3,4-c]quinolin-1-yl]-benzonitrile], for which the IC50 is less than 100 nM.

On to `COc1cc2ncc3c(c(-c4ccc(C#N)cc4F)nn3C)c2cc1OC(C(N)=O)c1ccc(F)cc1` (stereo not drawn) [Compound 23, 2-[1-(4-Cyano-2-fluoro-phenyl)-7-methoxy-3-methyl-3H-pyrazolo[3,4-c]quinolin-8-yloxy]-2-(4-fluorophenyl)-acetamide], for which the IC50 was less than 100 nM.

In the case of `COc1cc2ncc3c(c(-c4ccc(C#N)cc4)nn3C)c2cc1OC` [Compound 2, 4-(7,8-Dimethoxy-3-methyl-3H-pyrazolo-[3,4-c]quinolin-1-yl)-benzonitrile], the IC50 is less than 100 nM.

Turning to `COc1cc2ncc3c(c(-c4ccc(C#N)cc4)nn3C)c2cc1OP(=O)(O)c1ccccc1` [Compound 25, 1-(4-Cyanophenyl)-7-methoxy-3-methyl-3H-pyrazolo[3,4-c]quinolin-8-yl phenylphosphonate], the IC50 was in the range of 100 to 500 nM.

`COc1cc2ncc3n[nH]c(-c4ccc(C#N)c(-c5ccccc5)c4)c3c2cc1OC` [Compound 74, 5-(7,8-Dimethoxy-3H-pyrazolo[3,4-c]quinolin-1-yl)biphenyl-2-carbonitrile] came in with a 50% inhibitory concentration (IC50) greater than 500 nM.

Turning to `COc1cc2ncc3c(c(-c4ccc(C#N)cc4F)nn3C)c2cc1-c1cc[nH]c1` [Compound 89, 3-Fluoro-4-[7-methoxy-3-methyl-8-(1H-pyrrol-3-yl)-3H-pyrazolo[3,4-c]-quinolin-1-yl]-benzonitrile], the IC50 is less than 100 nM.

In turn, `COc1cc2ncc3c(c(-c4ccc(C#N)cc4)nn3C)c2cc1OCc1cccc(CN2CCN(C)CC2)c1` [Compound 44, 4-{7-Methoxy-3-methyl-8-[3-(4-methylpiperazin-1-yl-methyl)benzyloxy]-3H-pyrazolo[3,4-c]quinolin-1-yl}-benzonitrile] displayed an IC50 greater than 500 nM.

`COc1cc2ncc3c(c(-c4ccc(C#N)cc4)nn3C)c2cc1OCc1ccnc(N)c1` [Compound 33, 4-[8-(2-Aminopyridin-4-ylmethoxy)-7-methoxy-3-methyl-3H-pyrazolo[3,4-c]-quinolin-1-yl]benzonitrile] showed an IC50 of less than 100 nM.

As to `CCCCn1nc(-c2ccc(C#N)cc2)c2c3cc(OC)c(OC)cc3ncc21` [Compound 58, 4-(3-Butyl-7,8-dimethoxy-3H-pyrazolo[3,4-c]quinolin-1-yl)-benzonitrile], the 50% inhibitory concentration (IC50) was greater than 500 nM.

`COCc1cc(-c2nn(C)c3cnc4cc(OC)c(OC)cc4c23)ccc1C#N` [Compound 71, 4-(7,8-Dimethoxy-3-methyl-3H-pyrazolo[3,4-c]quinolin-1-yl)-2-methoxymethyl-benzonitrile] registered a concentration for half-maximal inhibition (IC50) of less than 100 nM.

Take `COc1cc2ncc3c(c(-c4ccc(C#N)cc4)nn3C)c2cc1OCc1cc2ccccc2s1` [Compound 37, 4-[8-(Benzo[b]thiophen-2-ylmethoxy)-7-methoxy-3-methyl-3H-pyrazolo[3,4-c]-quinolin-1-yl]benzonitrile]: the IC50 is greater than 500 nM.

In turn, `COc1cc2ncc3c(c(-c4ccc(C#N)cc4)nn3C)c2cc1OCc1ccsc1` [Compound 35, 4-[7-Methoxy-3-methyl-8-(thiophen-3-ylmethoxy)-3H-pyrazolo[3,4-c]quinolin-1-yl]-benzonitrile] returned an IC50 of less than 100 nM.

In turn, `COc1cc2ncc3c(c(-c4ccc(C#N)cc4)nn3C#N)c2cc1OC` [Compound 65, 1-(4-Cyanophenyl)-7,8-dimethoxypyrazolo[3,4-c]-quinoline-3-carbonitrile] gave a concentration for half-maximal inhibition (IC50) of 100 to 500 nM.

As to `COc1cc2ncc3c(c(-c4ccc(C#N)cc4)nn3C)c2cc1OCc1cccc(CN)c1` [Compound 32, 4-[8-(3-Aminomethyl-benzyloxy)-7-methoxy-3-methyl-3H-pyrazolo[3,4-c]-quinolin-1-yl]benzonitrile hydrochloride], the 50% inhibitory concentration (IC50) lay within 100 to 500 nM.

As to `C=CCn1nc(-c2ccc(C#N)cc2)c2c3cc(OC)c(OC)cc3ncc21` [Compound 63, 4-(3-Allyl-7,8-dimethoxy-3H-pyrazolo[3,4-c]quinolin-1-yl)-benzonitrile], the IC50 was in the range of 100 to 500 nM.

In turn, `COc1cc2ncc3c(c(-c4ccccc4F)nn3C)c2cc1OC` [Compound 76, 1-(2-Fluorophenyl)-7,8-dimethoxy-3-methyl-3H-pyrazolo[3,4-c]quinoline] showed a 50% inhibitory concentration (IC50) of less than 100 nM.

In the case of `COc1cc2ncc3c(c(-c4ccc(C#N)cc4)nn3C)c2cc1OC(C(=O)NCCN1CCNCC1)c1ccc(F)cc1` (stereo not drawn) [Compound 50, 2-[1-(4-Cyano-phenyl)-7-methoxy-3-methyl-3H-pyrazolo-[3,4-c]quinolin-8-yl-oxy]-2-(4-fluoro-phenyl)-N-(2 - piperazin-1-ylethyl)-acetamide], the IC50 is greater than 500 nM.

The compound `COc1cc2ncc3c(c(-c4ccc(C#N)cc4)nn3C)c2cc1OCc1cnc2[nH]ccc2c1` [Compound 30, 4-[7-Methoxy-3-methyl-8-(1H-pyrrolo[2,3-b]pyridin-5-ylmethoxy)-3H-pyrazolo-[3,4-c]quinolin-1-yl]-benzonitrile] came in with an IC50 of 100 to 500 nM.

`COc1cc2ncc3c(c(-c4ccc(C#N)cc4)nn3C(C)C)c2cc1OC` [Compound 60, 4-(3-Isopropyl-7,8-dimethoxy-3H-pyrazolo[3,4-c]quinolin-1-yl)benzonitrile] yielded a concentration for half-maximal inhibition (IC50) of 100 to 500 nM.

For `COc1cc2ncc3c(c(-c4ccc(C#N)cc4)nn3C)c2cc1OC(C)(C(=O)O)c1ccccc1` (stereo not drawn) [Compound 22, 2-[1-(4-Cyanophenyl)-7-methoxy-3-methyl-3H-pyrazolo[3,4-c]quinolin-8-yloxy]-2-phenylpropanoic acid], the IC50 is greater than 500 nM.

Take `COc1cc2ncc3c(c(-c4ccc(C#N)cc4)nn3C)c2cc1OCc1cccc(N(C)C)c1` [Compound 41, 4-[8-(3-Dimethylamino-benzyloxy)-7-methoxy-3-methyl-3H-pyrazolo[3,4-c]-quinolin-1-yl]benzonitrile]: the half-maximal inhibitory concentration (IC50) lay within 100 to 500 nM.

In turn, `COc1cc2ncc3c(c(-c4ccc(C#N)cc4)nn3C)c2cc1OC(C(=O)O)c1cccs1` (stereo not drawn) [Compound 21, [1-(4-Cyanophenyl)-7-methoxy-3-methyl-3H-pyrazolo[3,4-c]quinolin-8-yloxy]thiophen-2-ylacetic acid] registered a half-maximal inhibitory concentration (IC50) of less than 100 nM.

`COc1cc2ncc3c(c(-c4ccc(C#N)cc4)nn3C)c2cc1OC(C(=O)NCCS(N)(=O)=O)c1ccc(F)cc1` (stereo not drawn) [Compound 52, 2-[1-(4-Cyano-phenyl)-7-methoxy-3-methyl-3H-pyrazolo-[3,4-c]quinolin-8-yl-oxy]-2-(4-fluoro-phenyl)-N-(2-sulfamoylethyl)-acetamide] came in with a half-inhibitory concentration (IC50) of 100 to 500 nM.

`COc1cc2c(cc1OC(F)F)ncc1c2c(-c2ccc(C#N)cc2)nn1C` [Compound 26, 4-(7-Difluoromethoxy-8-methoxy-3-methyl-3H-pyrazolo[3,4-c]quinolin-1-yl)-benzonitrile] came in with a concentration for half-maximal inhibition (IC50) greater than 500 nM.

`COc1cc2c(cc1OCC(O)CO)ncc1c2c(-c2ccc(C#N)cc2)nn1C` (stereo not drawn) [Compound 47, 4-[7-(2,3-Dihydroxypropoxy)-8-methoxy-3-methyl-3H - pyrazolo[3,4-c]quinolin-1-yl]-benzonitrile] gave a concentration for half-maximal inhibition (IC50) greater than 500 nM.

For `COc1cc2ncc3c(c(-c4ccc(C#N)cc4)nn3C)c2cc1OCc1ccccc1C#N` [Compound 14, 4-[8-(2-Cyanobenzyloxy)-7-methoxy-3-methyl-8-3H-pyrazolo[3,4-c]quinolin-1-yl]-benzonitrile], the IC50 lay in the range of 100 to 500 nM.

Regarding `COc1cc2ncc3c(c(-c4ccc(C#N)cc4)nn3C)c2cc1OC(C(=O)O)c1ccc(F)cc1` (stereo not drawn) [Compound 19, [1-(4-Cyanophenyl)-7-methoxy-3-methyl-3H-pyrazolo[3,4-c]quinolin-8-yloxy]-(4-fluorophenyl)acetic acid], the half-inhibitory concentration (IC50) is less than 100 nM.

As to `COc1cc2ncc3c(c(-c4ccc(C#N)cc4)nn3C)c2cc1OC(C(=O)NCCN(C)C)c1ccc(F)cc1` (stereo not drawn) [Compound 49, 2-[1-(4-Cyano-phenyl)-7-methoxy-3-methyl-3H-pyrazolo-[3,4-c]quinolin-8-yl-oxy]-N-(2-dimethyl-aminoethyl)-2-(4-fluorophenyl)-acetamide], the half-inhibitory concentration (IC50) lay within 100 to 500 nM.

Consider `COc1cc2ncc3c(c(-c4ccc(C#N)cc4)nn3C)c2cc1OCc1ccc(F)cc1` [Compound 15, 4-[8-(4-Fluorobenzyloxy)-7-methoxy-3-methyl-3H-pyrazolo[3,4-c]quinolin-1-yl]-benzonitrile], for which the concentration for half-maximal inhibition (IC50) was less than 100 nM.

Compound `COc1cc2ncc3[nH]nc(-c4ccc(C#N)cc4)c3c2cc1OC` [Compound 1, 4-(7,8-Dimethoxy-3H-pyrazolo[3,4-c]quinolin-1-yl)benzonitrile] came in with a concentration for half-maximal inhibition (IC50) of less than 100 nM.

In the case of `COc1cc2ncc3c(c(-c4ccc(C#N)cc4)nn3CC(N)=O)c2cc1OC` [Compound 68, 2-[1-(4-Cyanophenyl)-7,8-dimethoxypyrazolo[3,4-c]-quinolin-3-yl]acetamide], the IC50 lay within 100 to 500 nM.
